# “Also recorded” adds a separate entry of the source.
# What was measured:
# [1] = system: pyramidal neurons in the cerebral cortex; assay: Recording of the action potential of pyramidal neurons in brain slices; format: cell-based, rat
# Method: H89 can reduce the excitability of pyramidal neurons in the cerebral cortex of rats with epilepsy. In order to further confirm the excitability of pyramidal neurons in the cerebral cortex, the action potential of pyramidal neurons was recorded. Action potential can intuitively reflect the excitability of neurons. […] Compared with the control group (e.g., WT rats), the positive potential of the epileptic group was decreased after H89 treatment, and the neuronal potential was increased after H89 treatment (P>0.05). There was no difference in the peak and half-duration of the action potential between the two groups. […] It was shown that a reduced neuron action potential threshold in epileptic rats indicates […] of pyramidal neurons, and H89 reversed this trend and improved epileptic symptoms in rats (FIGS. 16A-F).
# [2] = system: pyramidal neurons in the cerebral cortex; assay: Patch clamp recording of sEPSC and sIPSC of cortical pyramidal neurons in brain slices; format: cell-based, rat; conditions: epilepsy group (PKHD1L1+/− rats) after H89 treatment
# Text: Results of Electrophysiological Examination of Transgenic Animal Brain Slices
# In transgenic animals (PKHD1L1+/− rats), neuronal excitability increased, and H89 reduced the frequency of spontaneous excitatory post synaptic currents (sEPSC) in pyramidal neurons in the cerebral cortex.
# A patch clamp technique was used to record sEPSC and sIPSC (e.g., spontaneous inhibitory post synaptic currents) of cortical pyramidal neurons […], and to observe the changes in excitatory synaptic transmission and inhibitory synaptic transmission of pyramidal neurons in each group of rats, so as to reflect any changes in neuronal excitability.
# [3] = system: pyramidal neurons in the cerebral cortex; assay: Recording of Na+ and K+ currents in pyramidal neurons in brain slices; format: cell-based, rat; conditions: control, epilepsy and epilepsy+H89 groups compared
# Method: Neuronal excitability is related to Na+ and K+ currents, so the Na+ and K+ currents in pyramidal neurons in the cerebral cortex of each group of rats (e.g., PKHD1L1+/− and wild-type) were recorded. As shown in FIGS. 15A-B, there was no difference in Na+ and K+ currents in pyramidal neurons of rats among all groups (3 young rats in each group, 6 cells in the control [WT] group, 6 cells in the epilepsy [e.g., PKHD1L1+/−] group, and 6 cells in the epilepsy+H89 group), […].
# [4] = system: wild-type (WT) rats; assay: PTZ-induced epilepsy model, wild-type rats; format: in vivo, rat
# Method: (§1) Subsequently, the epileptic susceptibility of PKHD1L1+/− rats was studied using a PTZ-induced epilepsy model: A total of 10 male PKHD1L1+/− rats and 10 male wild-type (WT) rats with body weights matched with age (in weeks) were selected for inducing epileptic seizures with PTZ (40 mg/kg). The dose of PTZ selected is lower than the conventional dose in such animal modeling. Only 2 out of the 10 wild-type rats (20%), but 7 out of the 10 (70%) PKHD1L1+/− rats, were induced to have grand mal seizures of grade 4-5 (see FIG. 13A).
# [5] = system: PKHD1L1+/− rats; assay: PTZ-induced epilepsy model, PKHD1L1+/- rats; format: in vivo, rat; conditions: PTZ 40 mg/kg
# Method: as §1
SMILES,half-duration of the action potential ([1]; between groups),peak of the action potential ([1]; between groups),"action potential threshold ([1]; epilepsy group after H89 treatment, P<0.05)","positive post-potential (neuronal potential) of the action potential ([1]; epilepsy group after H89 treatment, P>0.05)",sEPSC amplitude [2],sEPSC frequency [2],K+ currents in pyramidal neurons [3],Na+ currents in pyramidal neurons [3],"rats induced to have grand mal seizures of grade 4-5 ([4]; PTZ 40 mg/kg, 10 male wild-type rats)","mean dose of PTZ required to exhibit grade 4-5 seizures ([4]; additional 5 mg/kg at 15-minute intervals, wild-type rats compared with PKHD1L1+/− rats)",rats induced to have grand mal seizures of grade 4-5 ([5]; 10 male PKHD1L1+/− rats),maximum seizure level reached ([5]; PKHD1L1+/− rats compared with wild-type rats)
O=S(=O)(NCCNC/C=C/c1ccc(Br)cc1)c1cccc2cnccc12 [H89],no difference,no difference,increased,increased,decreased,reduced; also recorded: decreased,no difference,no difference,,,,
"C1CCc2nnnn2CC1 [PTZ, pentylenetetrazole]",,,,,,,,,20%,statistically significantly higher,70%,significantly higher

# — US12628802B2, “Genetically modified rat having PKHD1L1 gene with point mutation and methods for its construction, detection and use” (HUASHAN HOSPITAL AFFILIATED TO FUDAN UNIVERSITY, priority 2022, dated 2026)
